Source: patent publication US10335388B2, “Combination therapy of a HIF-2-alpha inhibitor and an immunotherapeutic agent and uses thereof” (PELOTON THERAPEUTICS, INC., priority 2015, dated 2019)
Read-outs that look alike come from different tables or passages of the source.

Key:
786-O cells = test: VEGF ELISA assay; assay type: cell-based; conditions: Homo sapiens, 786-0
Description: Each concentration was plated in duplicate. About 20 hours later, medium was removed by suction and each well was supplied with 180 μL of growth medium. About 20 µl freshly-made 10× compound stocks were added to each well. […] The EC50 was calculated by GraphPad Prism using the dose-response-inhibition (four parameter) equation. The cell-seeded plate was then subjected to CellTiter-Glo luminescence cell viability assay (Promega) by adding 50 μL of Celltiter Glo reagent into each well and shaking the plate for 8 minutes at 550 rpm (Thermomixer R, Eppendorf) then the luminescence signal immediately read in a plate reader (3 second delay, 0.5 second/well integration time, Synergy 2 multi Detection Microplate reader).

786-O-Hif-Luc cells = test: Luciferase assay (HIF responsive element reporter); conditions: 24 h
Description: A pool of infected cells were then selected against 2 μg/mL of puromycin (P8833, Sigma) for 10 days followed by limited dilution to select single clones.
Each concentration was tested in triplicate. After about 24 hours, luciferase activity was determined using ONE-Glo Luciferase Assay Reagent (E6110, Promega) following the manufacturer's recommended procedure. EC50 were calculated using Dotmatics software.

[1] = biological target: T1, HIF-2α HIS TAG-PASB Domain (Homo sapiens, UniProt Q99814); test: HIF-2α Scintillation Proximity Assay (SPA); assay type: binding; conditions: displacement of tritiated probe Compound 183
T1 construct: 100 nM HIF-2α HIS TAG-PASB Domain
T1 sequence (Q99814 240-350 limits assumed): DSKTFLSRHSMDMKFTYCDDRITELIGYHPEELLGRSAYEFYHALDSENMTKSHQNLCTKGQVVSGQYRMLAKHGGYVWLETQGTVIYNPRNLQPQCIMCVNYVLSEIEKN
Description: The total assay volume was about 100 μL in the following configuration: 2 μL compound in 100% DMSO, 88 μL buffer with protein and probe and 10 μL of SPA beads. […] The percent inhibition was determined and IC50 values were calculated using the Dotmatics system based on the following equation: % inhibition=[(high control−sample)/(high control−low control)]×100.

[2] = test system: B16-F10 mouse melanoma cells; test: Mouse melanoma B16-F10 syngeneic tumor model; conditions: C57BL/6 mice, after 14 days of treatment; Compound 163 30 mg/kg BID, α-PD-1 or IgG control 10 mg/kg BIW
[3] = test system: CT26.WT mouse carcinoma cells; test: Mouse colon CT26 syngeneic tumor model; conditions: BALB/c mice, after 20 days of treatment; Compound 163 30 mg/kg BID, α-CTLA-4 or IgG control 10 mg/kg BIW
[4] = read-out: Mean Luciferase EC50 (nM)
[5] = read-out: Mean Luciferase EC50 (nM), 786-O-Hif-Luc cells, about 24 hours

Structure (SMILES) | EC50 (786-O cells) | EC50 (786-O-Hif-Luc cells; [4]) | other results
O=S(=O)(c1ccc(Oc2cc(F)cc(Cl)c2)c2c1[C@H](O)CC2)C(F)F [Compound 1] | 250 to 1000 nM | – | –
C[C@H]1C[C@@H](O)c2c(S(=O)(=O)C(F)F)ccc(Oc3cc(F)cc(Cl)c3)c21 [Compound 7a] | – | 250 to 1000 nM | –
O=S(=O)(c1ccc(Oc2cc(F)cc(Cl)c2)c2c1C(O)CC2)C(F)F (stereo not drawn) [Compound 17] | 50 to 249 nM | – | –
O=S(=O)(c1ccc(Oc2cc(F)cc(Cl)c2)c(Cl)c1CO)C(F)F [Compound 41] | 250 to 1000 nM | 250 to 1000 nM | –
N#Cc1cc(F)cc(Oc2ccc(S(=O)(=O)C(F)(F)F)c3c2CC[C@H]3O)c1 [Compound 57] | – | 50 to 249 nM | –
N#Cc1ccc(Oc2cc(F)cc(F)c2)c2c1[C@H](O)C(F)(F)C2 [Compound 67] | 50 to 249 nM | – | –
N#Cc1cc(F)cc(Oc2ccc(S(=O)(=O)C(F)F)c3c2CCC3O)c1 (stereo not drawn) [Compound 78] | 250 to 1000 nM | – | –
CC(=NO)c1c(S(=O)(=O)C(F)(F)F)ccc(Oc2cc(F)cc(Cl)c2)c1Br [Compound 106] | – | – | IC50 [1]: 250 to 1000 nM
O=S(=O)(c1ccc(Oc2cc(F)cc(Cl)c2)c(Br)c1C=NO)C(F)(F)F [Compound 107] | – | – | EC50 (786-O-Hif-Luc cells; [5]): 250 to 1000 nM; IC50 [1]: 50 to 249 nM
O=S(=O)(c1ccc(Oc2cc(F)cc(Cl)c2)c(C(F)F)c1)C(F)(F)F [Compound 124] | 250 to 1000 nM | 250 to 1000 nM | –
N#Cc1c(Oc2cc(F)cc(Cl)c2)ccc(S(=O)(=O)C(F)(F)F)c1F [Compound 153] | – | – | IC50 [1]: 50 to 249 nM
N#Cc1cc(F)cc(Oc2ccc(S(=O)(=O)C(F)F)c3c2CC[C@H]3O)c1 [Compound 155] | 50 to 249 nM | 50 to 249 nM | –
N#Cc1cccc(Oc2ccc(S(=O)(=O)C(F)F)c3c2CC[C@H]3O)c1 [Compound 156] | – | 250 to 1000 nM | –
CS(=O)(=O)c1ccc(Oc2cc(F)cc(F)c2)c2c1C(O)C(F)(F)C2 (stereo not drawn) [Compound 159] | < 50 nM | – | EC50 (786-O-Hif-Luc cells; [5]): < 50 nM; IC50 [1]: < 50 nM
CS(=O)(=O)c1ccc(Oc2cc(F)cc(C#N)c2)c2c1[C@H](O)C(F)(F)C2 [Compound 163, (S)-3-((2,2-Difluoro-1-hydroxy-7-(methylsulfonyl)-2,3-dihydro-1H-inden-4-yl)oxy)-5-fluorobenzonitrile] | – | < 50 nM | Tumor size (mm^3) Mean ± SEM [2]: 2133.89 ± 306.44 mm^3; Tumor size (mm^3) Mean ± SEM [3]: 1612 ± 305 mm^3
CS(=O)(=O)c1ccc(Oc2cc(F)cc(C#N)c2)c2c1[C@H](N)C(F)(F)C2 [Compound 165] | – | 50 to 249 nM | –
N#Cc1cc(Cl)cc(Oc2ccc(S(=O)(=O)CF)c3c2CC(F)(F)[C@H]3O)c1 [Compound 167] | – | < 50 nM | –
CS(=N)(=O)c1ccc(Oc2cc(F)cc(F)c2)c2c1[C@H](O)C(F)(F)C2 (stereo partly drawn) [Compound 192] | – | – | EC50 (786-O-Hif-Luc cells; [5]): 250 to 1000 nM; IC50 [1]: 50 to 249 nM
N#Cc1cc(F)cc(Oc2ccc(S(=O)(=O)C(F)F)c3c2CCC3F)c1 (stereo not drawn) [Compound 202] | – | – | EC50 (786-O-Hif-Luc cells; [5]): > 1000 nM; IC50 [1]: 250 to 1000 nM
CCS(=O)(=O)c1ccc(Oc2cc(F)cc(C#N)c2)c2c1[C@H](O)C(F)(F)C2 [Compound 206] | – | 50 to 249 nM | –
CS(=O)(=O)c1ccc(Oc2cc(F)cc(C#N)c2)c2c1C(O)C(F)(F)C2 (stereo not drawn) [Compound 223] | – | 50 to 249 nM | –
CS(=O)(=O)c1ccc(Oc2cc(F)cc(C#N)c2)c2c1[C@@H](O)C(F)(F)C2 [Compound 226] | – | > 1000 nM | –
[2H]C([2H])([2H])S(=O)(=O)c1ccc(Oc2cc(F)cc(C#N)c2)c2c1[C@]([2H])(O)C(F)(F)C2 [Compound 229] | – | < 50 nM | –
CS(=O)(=O)c1ccc(Oc2cc(F)cc(C#N)c2)c2c1[C@H](O)[C@H](F)C2 [Compound 231] | – | < 50 nM | –
CS(=O)(=O)c1ccc(Oc2cc(F)cc(C#N)c2)c2c1C(O)C(F)C2 (stereo not drawn) [Compound 232] | – | < 50 nM | –
CS(=O)(=O)c1ccc(Oc2cc(Cl)cc(C#N)c2)c2c1[C@H](O)C(F)(F)C2 [Compound 234] | 50 to 249 nM | < 50 nM | –
N#Cc1cncc(Oc2ccc(S(=O)(=O)C(F)(F)F)c3c2CC(F)(F)[C@H]3O)c1 [Compound 235] | – | < 50 nM | –
[2H][C@]1(O)c2c(S(C)(=O)=O)ccc(Oc3cc(F)cc(C#N)c3)c2CC1(F)F [Compound 247] | – | < 50 nM | –
